What follows are compounds tested on JR251 or RBL cells (assay: Store-operated calcium entry, either JR251 or RBL cells, or both).
Assay type: cell-based
Procedure: The day prior to performing the assay, RBL-2H3 cells are plated in 50 μL of complete medium in a 384 well plate. Cells are grown at 37° C./6% CO2 overnight and grow to 50-60% confluence by the next day. On the assay day, 1.5 μM Fluo-4-AM dye (Invitrogen) in complete medium is added and incubated for 1 hour at RT. Cells are washed twice in Ca^2+-free HBSS buffer and 35 μL Ca^2+-free HBSS buffer is added to each well. 10 μL of a test compound prepared in a Ca^2+-free HBSS solution at 4.5× of the desired concentration is added to a well and incubated for 5 minutes at RT. 10 μL of thapsigargin prepared in a Ca^2+-free HBSS solution at 5.5× of the desired concentration (5.5 uM) is added to each well and incubated for an additional 25 minutes. The initial baseline fluorescence signal is measured with a FLIPR^384 (Molecular Devices) plate reader. 5 μL of 12× calcium in HBSS (12 mM) is added and changes in cellular fluorescence are measured with the FLIPR^384 plate reader. In each well, the change in the fluorescent signal as a function of time due to calcium entry into the cell is determined by calculating the difference between the fluorescent signal measured 7 seconds after calcium addition and the initial baseline fluorescence signal at time zero (t=0). This parameter is designated Upslope. The IC50 value is calculated as the concentration at which 50% of the Upslope is inhibited.

IC50, < 10 µM:
O=C(Nc1scc(-c2cc3cccc(-c4cc[nH]n4)c3o2)c1C(=O)O)c1cc2ccccc2o1 [4-(7-(1H-pyrazol-3-yl)benzofuran-2-yl)-2-(benzofuran-2-carboxamido)thiophene-3-carboxylic acid]
O=C(Nc1scc(-c2ccc(Cl)cc2)c1C(=O)O)c1nc2ccc([N+](=O)[O-])cc2s1 [4-(4-chlorophenyl)-2-(6-nitrobenzo[d]thiazole-2-carboxamido)thiophene-3-carboxylic acid]
O=C(Nc1scc(-c2ccc(Br)cc2F)c1C(=O)O)c1nc2ccccc2o1 [2-(benzo[d]oxazole-2-carboxamido)-4-(4-bromo-2-fluorophenyl)thiophene-3-carboxylic acid]
Cc1noc(C)c1C(=O)Nc1scc(-c2ccc(Cl)cc2)c1C(=O)O [4-(4-chlorophenyl)-2-(3,5-dimethylisoxazole-4-carboxamido)thiophene-3-carboxylic acid]
O=C(Nc1scc(-c2ccc(Cl)cc2)c1C(=O)O)c1ccc(C(F)(F)F)nc1 [4-(4-chlorophenyl)-2-(6-(trifluoromethyl)nicotinamido)thiophene-3-carboxylic acid]
O=C(CCc1ccccc1)Nc1scc(-c2ccc(Cl)c(Cl)c2)c1C(=O)O [4-(3,4-dichlorophenyl)-2-(3-phenylpropanamido)thiophene-3-carboxylic acid]
O=C(O)c1c(-c2ccc(Cl)cc2)csc1NC(=O)C1Cc2ccccc2S1 (stereo not shown) [4-(4-chlorophenyl)-2-(2,3-dihydrobenzo[b]thiophene-2-carboxamido)thiophene-3-carboxylic acid]
COc1cc(C)c(-c2csc(NC(=O)c3cc4ccccc4o3)c2C(=O)O)cc1C [2-(benzofuran-2-carboxamido)-4-(4-methoxy-2,5-dimethylphenyl)thiophene-3-carboxylic acid]
O=C(Nc1scc(-c2ccc(Cl)cc2)c1C(=O)O)c1ccc(-c2ccccc2)s1 [4-(4-chlorophenyl)-2-(5-phenylthiophene-2-carboxamido)thiophene-3-carboxylic acid]
O=C(Nc1scc(-c2cc3cccc(O)c3o2)c1C(=O)O)c1ccc2snnc2c1 [2-(benzo[d][1,2,3]thiadiazole-5-carboxamido)-4-(7-hydroxybenzofuran-2-yl)thiophene-3-carboxylic acid]
O=C(Nc1scc(-c2ccc(Cl)c(F)c2)c1C(=O)O)c1nc2c(F)cccc2o1 [4-(4-chloro-3-fluorophenyl)-2-(4-fluorobenzo[d]oxazole-2-carboxamido)thiophene-3-carboxylic acid]
O=C(O)c1c(-c2ccc(Br)cc2)csc1NC(=O)C(F)Cc1c(Cl)cccc1Cl (stereo not shown) [4-(4-bromophenyl)-2-(3-(2,6-dichlorophenyl)-2-fluoropropanamido)thiophene-3-carboxylic acid]
COc1c(F)ccc(-c2csc(NC(=O)c3nc4ccccc4o3)c2C(=O)O)c1F [2-(benzo[d]oxazole-2-carboxamido)-4-(2,4-difluoro-3-methoxyphenyl)thiophene-3-carboxylic acid]
O=C(Nc1scc(-c2cc(F)c(Cl)c(F)c2)c1C(=O)O)c1cc2ccccc2o1 [2-(benzofuran-2-carboxamido)-4-(4-chloro-3,5-difluorophenyl)thiophene-3-carboxylic acid]
O=C(Nc1scc(-c2ccc(C(F)(F)F)cc2F)c1C(=O)O)c1nc2ccccc2o1 [2-(benzo[d]oxazole-2-carboxamido)-4-(2-fluoro-4-(trifluoromethyl)phenyl)thiophene-3-carboxylic acid]
Cc1ccc(-c2csc(NC(=O)c3nc4c(F)cccc4o3)c2C(=O)O)c(F)c1F [4-(2,3-difluoro-4-methylphenyl)-2-(4-fluorobenzo[d]oxazole-2-carboxamido)thiophene-3-carboxylic acid]
Cc1c(S(=O)(=O)c2ccc(Cl)cc2)csc1C(=O)Nc1scc(-c2ccc(Br)cc2)c1C(=O)O [4-(4-bromophenyl)-2-(4-(4-chlorophenylsulfonyl)-3-methylthiophene-2-carboxamido)thiophene-3-carboxylic acid]
O=C(O)c1c(-c2ccc(Cl)cc2)csc1NC(=O)C1Cc2ccc(F)cc2C1 (stereo not shown) [4-(4-chlorophenyl)-2-(5-fluoro-2,3-dihydro-1H-indene-2-carboxamido)thiophene-3-carboxylic acid]
N#Cc1cccc2nc(C(=O)Nc3scc(-c4ccc(Br)cc4)c3C(=O)O)oc12 [4-(4-bromophenyl)-2-(7-cyanobenzo[d]oxazole-2-carboxamido)thiophene-3-carboxylic acid]
O=C(NCc1ccccc1)Nc1scc(-c2ccc(Cl)cc2)c1C(=O)O [2-(3-benzylureido)-4-(4-chlorophenyl)thiophene-3-carboxylic acid]
O=C(CCc1ccccc1)Nc1scc(-c2ccc(O)cc2)c1C(=O)O [4-(4-hydroxyphenyl)-2-(3-phenylpropanamido)thiophene-3-carboxylic acid]
O=C(Nc1scc(-c2cc3cccc(O)c3o2)c1C(=O)O)c1ccc2nnsc2c1 [2-(benzo[d][1,2,3]thiadiazole-6-carboxamido)-4-(7-hydroxybenzofuran-2-yl)thiophene-3-carboxylic acid]
O=C(Nc1scc(-c2ccc(C(F)(F)F)cc2)c1C(=O)O)c1cccs1 [2-(thiophene-2-carboxamido)-4-(4-(trifluoromethyl)phenyl)thiophene-3-carboxylic acid]
O=C(CSc1ccccc1)Nc1scc(-c2ccc(Br)cc2)c1C(=O)O [4-(4-bromophenyl)-2-(2-(phenylthio)acetamido)thiophene-3-carboxylic acid]
O=C(Nc1scc(-c2ccc(Cl)cc2)c1C(=O)O)c1nc2c([N+](=O)[O-])cccc2s1 [4-(4-chlorophenyl)-2-(4-nitrobenzo[d]thiazole-2-carboxamido)thiophene-3-carboxylic acid]
O=C(Nc1scc(-c2ccc(Cl)cc2)c1C(=O)O)c1nnc2ccccc2n1 [2-(benzo[e][1,2,4]triazine-3-carboxamido)-4-(4-chlorophenyl)thiophene-3-carboxylic acid]
Cc1c(F)ccc(-c2csc(NC(=O)c3cc4ccccc4o3)c2C(=O)O)c1C [2-(benzofuran-2-carboxamido)-4-(4-fluoro-2,3-dimethylphenyl)thiophene-3-carboxylic acid]
COc1ccc(-c2csc(NC(=O)c3cc4ccccc4o3)c2C(=O)O)c(F)c1F [2-(benzofuran-2-carboxamido)-4-(2,3-difluoro-4-methoxyphenyl)thiophene-3-carboxylic acid]
O=C(O)c1c(-c2ccc(Cl)cc2)csc1NC(=O)C(F)Cc1ccc(F)cc1Cl (stereo not shown) [2-(3-(2-chloro-4-fluorophenyl)-2-fluoropropanamido)-4-(4-chlorophenyl)thiophene-3-carboxylic acid]
COc1ccc2oc(C(=O)Nc3scc(-c4ccc(C)c(F)c4F)c3C(=O)O)nc2c1 [4-(2,3-difluoro-4-methylphenyl)-2-(5-methoxybenzo[d]oxazole-2-carboxamido)thiophene-3-carboxylic acid]
COc1cccc2cc(-c3csc(NC(=O)c4cc5ccccc5o4)c3C(=O)O)oc12 [2-(benzofuran-2-carboxamido)-4-(7-methoxybenzofuran-2-yl)thiophene-3-carboxylic acid]

Source: patent US8394848B2, “Compounds that modulate intracellular calcium” (Calcimedica, Inc., priority 2008, dated 2013)
